Measurements reported in US20240400547A1, “2,6-PIPERIDINEDIONE COMPOUND AND APPLICATION THEREOF” (MEDSHINE DISCOVERY INC., priority 2021, published 2024).
Structures can show the parent of a compound that is named as a salt. Where two headings read alike, the source gives them in different places. Values belong to the molecule of their own block, whether it stands above or below them.

How the values were obtained:
[1] = Pharmacokinetic evaluation in mice; assay type: in vivo, C57BL/6N or CD-1 male mice; details: for Vd / half-life / clearance / bioavailability: male, plasma; for Vd: read-out: Apparent volume of distribution; for half-life: read-out: Elimination half-life (converted); for clearance: read-out: Plasma clearance rate; for bioavailability: po, read-out: Bioavailability F
Excerpt: In this study, C57BL/6N or CD-1 male mice were selected as test animals, and LC/MS/MS method was used to quantify plasma concentrations of the test compound intravenously injected or gavage to mice at different time points, so as to evaluate the pharmacokinetic profile of the compounds of the present disclosure in mice.
C57BL/6N mice (male, 20 to 30 g, 7 to 10 weeks old, Beijing VitalRiver) or CD-1 mice (male, 20 to 35 g, 7 to 10 weeks old, Beijing VitalRiver).
• The test compounds, either as clear or suspension solutions, were administered intravenously through the tail vein to C57BL/6N mice or CD-1 mice (either fasted overnight or fed) (vehicle: 10% DMSO/10% solutol/80% H2O or 5% DMSO/10% solutol/85% H2O), or intragastrically administered to C57BL/6N mice or CD-1 mice (either fasted overnight or fed). For intravenous injection, blood 50 μL was collected via the cheek vein puncture at 0 h (pre-administration), 0.083, 0.25, 0.5, 1, 2, 4, 6, 8, and 24 h after administration, and placed in an anticoagulant tube added with heparin sodium. The mixture was thoroughly vortexed and mixed, and centrifuged at 6000 g for 3 minutes at 2-8° C. For oral administration, blood was collected via the cheek vein puncture at 0 h (pre-administration), 0.083, 0.25, 0.5, 1, 2, 4, 6, 8, and 24 h after administration, and placed in an anticoagulant tube added with heparin sodium. The mixture was thoroughly vortexed and mixed, and centrifuged at 6000 g for 3 minutes at 2-8° C. Plasma concentrations were determined by LC-MS/MS method, and relevant pharmacokinetic parameters were calculated using Phoenix WinNonlin8.2.0 pharmacokinetic software with non-compartmental model linear-log trapezoidal method.
• The test compounds, as clear solutions, were administered intravenously through the tail vein to CD-1 mice (fasted overnight) (vehicle: 10% DMSO/10% solutol/80% H2O or 5% DMSO/10% solutol/85% H2O), or intragastrically administered to CD-1 mice (fasted overnight). For intravenous injection, blood was collected via the saphenous vein puncture at 0 h (pre-administration), 0.083, 0.25, 0.5, 1, 2, 4, 8, and 24 h after administration, and placed in a EDTA-K2 anticoagulant tube. The mixture was thoroughly vortexed and mixed, and centrifuged at 3200 g for 10 minutes at 4° C. to obtain plasma. For oral administration, blood was collected via the saphenous vein puncture at 0 h (pre-administration), 0.083, 0.25, 0.5, 1, 2, 4, 8, and 24 h after administration, and placed in a EDTA-K2 anticoagulant tube. The mixture was thoroughly vortexed and mixed, and centrifuged at 3200 g for 10 minutes at 4° C. to obtain plasma. Plasma concentrations were determined by LC-MS/MS method, and relevant pharmacokinetic parameters were calculated using Phoenix WinNonlin 6.3 pharmacokinetic software with non-compartmental model linear-log trapezoidal method.

[2] = test system: human B-cell lymphoma OCI-LY10 cells; assay: In vivo efficacy in SCID mouse xenograft model of human B-cell lymphoma OCI-LY10 cells; set-up: species or system SCID mice; details: for Tumor volume (Day 0): Day 0 (grouping, baseline); for Tumor volume (Day 0) / Tumor volume (Day 28): average, SEM in next grid line
Protocol: The study evaluates the antitumor effect of the test compounds using a SID mouse xenograft model of human B-cell lymphoma OCI-LY10 cells.
• 1. Experimental animals: SCID mice, female, 6 to 8 weeks old, weighing 17 to 20 g. Beijing Vital River Laboratory Animal Technology Co., Ltd. • 2. Cell line: The human B-cell lymphoma OCI-LY10 cell line was purchased from Nanjing Cobioer Biosciences Co. Ltd (Cat. No CBP60558).
OCI-LY10 cells were cultured in IMDM medium containing 20% FBS and maintained in a 37° C. incubator with 5% CO2 and saturated humidity. Log phase OCI-LY10 cells were collected, resuspended in IMDM basic medium, and mixed 1:1 with Matrigel. The cell concentration was adjusted to 4×10^7/mL. Under sterile conditions, 0.1 mL of the cell suspension was inoculated subcutaneously into the right flank of SCID mice, with an inoculation concentration of 4×10^6/0.1 mL/mouse.
For the pharmacological experiment, once the tumors reached a certain size, animals with tumors that were either too large, too small, or irregularly shaped were eliminated. Animals with tumor volumes between 167.65 and 231.29 mm^3 were selected. Based on tumor volume, the animals were divided into groups using a random grouping method, with each group consisting of six mice, and the average tumor volume was approximately 201.15 mm^3. The day of grouping was designated as Day 0, and dosing began according to the body weight of the animals. The pharmacological study period lasted for 28 days, with dosing once a day and a 24-hour interval between doses. Intragastric administration was used for administration. During the experiment, the body weight and tumor size of the animals were measured twice a week. Clinical symptoms were observed and recorded daily.
The test compounds were administered at doses of 10 mg/kg, 30 mg/kg, and 100 mg/kg, with a solvent composition of 10% DMSO/10% Solutol/80% H2O. The formula for calculating tumor volume (TV) was: 1/2×a×b^2, where a and b were the measured length and width of the tumor, respectively. The formula for calculating the Tumor Growth Inhibition (TGI) rate was: TGI (%)=[(1−(average tumor volume at the end of administration in a treatment group−average tumor volume at the beginning of administration in this treatment group))/(average tumor volume at the end of treatment in the vehicle control group−average tumor volume at the beginning of treatment in the vehicle control group)]×100%. Relative Tumor Proliferation rate T/C (%): the calculation formula was as follows: T/C %=TRTV/CRTV×100% (TRTV: average RTV of the treatment group; CRTV: average RTV of the negative control group). According to the results of tumor measurement, the relative tumor volume (RTV) was calculated, and the calculation formula was RTV=Vt/V0, where V0 was the tumor volume measured at the time of group administration (i.e. Day 0), VT was the tumor volume at a certain measurement, and TRTV and CRTV were taken from the same day's data.
In this study, experimental data were presented in Mean±SEM.
Statistical analysis was performed using IBM SPSS Statistics software based on the RTV data at the end of the experiment. For comparisons between two groups, a T test was used. For comparisons among three or more groups, one-way ANOVA was utilized. If the variance was homogenous (no significant difference in F value), Tukey's method was applied for analysis. If the variance was heterogeneous (significant difference in F value), the Games-Howell method was used for testing. A p-value of […] was considered statistically significant.

[3] = intragastric administration 10 mg/kg, experimental operation B, fasted overnight
[4] = intravenous injection 2 mg/kg, experimental operation B, fasted overnight
[5] = CD-1, mouse, intravenous injection 2 mg/kg, experimental operation B, fasted overnight
[6] = CD-1, mouse, intragastric administration 10 mg/kg, experimental operation B, fasted overnight
[7] = intragastric administration 10 mg/kg, experimental operation A, fed
[8] = 10 mg/kg intragastric once a day
[9] = 30 mg/kg intragastric once a day
[10] = 100 mg/kg intragastric once a day
[11] = intragastric administration 10 mg/kg, experimental operation A, fasted overnight
[12] = mouse, intravenous injection 2 mg/kg, experimental operation A, fasted overnight

- Area under drug-time curve (0-inf) [1, 3]: 5.07 µM·h
- Peak concentration [1, 3]: 0.65 µM
- Time to peak concentration [1, 3]: 4.00 h
- Area under drug-time curve (0-inf) [1, 4]: 3.17 µM·h
- Vd [1, 5]: 2.59 L/kg
- half-life [1, 5]: 2.32 h
- clearance [1, 5]: 0.732 L/h/kg
- bioavailability [1, 6]: 31.9%
SMILES: CC(C)(O)c1cc2nc(C3CCC(CN4CCN(CC(=O)Nc5cccc6c5ccc5onc(C7CCC(=O)NC7=O)c56)CC4)CC3)sc2cc1NC(=O)c1cccc(C(F)(F)F)n1 (stereo not shown) [Formate of WX017]

- Area under drug-time curve (0-inf) [1, 3]: 2.00 µM·h
- Peak concentration [1, 3]: 0.64 µM
- Time to peak concentration [1, 3]: 1.00 h
SMILES: O=C1CCC(c2coc3cc(NC(=O)CN4CCN(C[C@H]5CC[C@H](N6CC(NC(=O)c7coc(-c8ccnc(NCC9CC9)c8)n7)C(C(F)F)N6)CC5)CC4)ccc23)C(=O)N1 (stereo partly shown) [Hydrochloride of WX002]

SMILES: O=C1CCC(c2noc3ccc4c(NC(=O)CN5CCN(C[C@H]6CC[C@H](n7cc(NC(=O)c8coc(-c9ccnc(NCC%10CC%10)c9)n8)c(C(F)F)n7)CC6)CC5)cccc4c23)C(=O)N1 (stereo partly shown) [Hydrochloride of WX014]
- Area under drug-time curve (0-inf) [1, 7]: 4.47 µM·h
- Peak concentration [1, 7]: 0.54 µM
- Time to peak concentration [1, 7]: 1.00 h
- Area under drug-time curve (0-inf) ([1]; intravenous injection 2 mg/kg, experimental operation A, fed): 5.40 µM·h
- Tumor volume (Day 0) [2, 8]: 202.43 mm^3
- T/C (%) (Day 28) [2, 8]: 47.40%
- TGI (%) (Day 28) [2, 8]: 60.43%
- Tumor volume (Day 28) [2, 8]: 685.61 mm^3
- Tumor volume (Day 0) [2, 9]: 199.80 mm^3
- T/C (%) (Day 28) [2, 9]: 23.07%
- TGI (%) (Day 28) [2, 9]: 89.94%
- Tumor volume (Day 28) [2, 9]: 322.68 mm^3
- Tumor volume (Day 0) [2, 10]: 199.75 mm^3
- T/C (%) (Day 28) [2, 10]: 12.80%
- TGI (%) (Day 28) [2, 10]: 100.96%
- Tumor volume (Day 28) [2, 10]: 188.01 mm^3

- Area under drug-time curve (0-inf) [1, 3]: 1.01 µM·h
- Peak concentration [1, 3]: 0.09 µM
- Time to peak concentration [1, 3]: 6.00 h
- Area under drug-time curve (0-inf) [1, 4]: 3.06 µM·h
- Vd [1, 5]: 4.39 L/kg
- half-life [1, 5]: 5.22 h
- clearance [1, 5]: 0.708 L/h/kg
- bioavailability [1, 6]: 6.59%
SMILES: O=C1CCC(c2noc3ccc4c(NC(=O)C(F)(F)C5CCN(CC6CCC(n7cc(NC(=O)c8coc(-c9ccnc(NCC%10CC%10)c9)n8)c(C(F)F)n7)CC6)CC5)cccc4c23)C(=O)N1 (stereo not shown) [Hydrochloride of WX018]

- Area under drug-time curve (0-inf) [1, 11]: 5.00 µM·h
- Peak concentration [1, 11]: 0.45 µM
- Time to peak concentration [1, 11]: 1.67 h
- Area under drug-time curve (0-inf) ([1]; intravenous injection 2 mg/kg, experimental operation A, fasted overnight): 15.31 µM·h
- Vd [1, 12]: 1.8 L/kg
- half-life [1, 12]: 9.45 h
- clearance [1, 12]: 0.166 L/h/kg
- bioavailability ([1]; mouse, intragastric administration 10 mg/kg, experimental operation A, fasted overnight): 6.53%
SMILES: O=C1CCC(c2coc3ccc4c(NC(=O)CN5CCN(C[C@H]6CC[C@H](n7cc(NC(=O)c8coc(-c9ccnc(NCC%10CC%10)c9)n8)c(C(F)F)n7)CC6)CC5)cccc4c23)C(=O)N1 (stereo partly shown) [Trifluoroacetate of WX011]
